From patent US5519024A, “Quinolonecarboxylic acid derivatives and their use” (Takeda Chemical Industries, Ltd., priority 1993, dated 1996)
Where a name gives a salt, the structure may show the parent alone.

Target: T1, GPIIb/IIIa (Homo sapiens, UniProt P05106+P08514)
T1 construct: Purification of GPIIb/IIIa from HEL cells; endogenous in cells; host or cells: HEL cells (HEL 92.1.7, ATCC TIB180); endogenous complex solubilized with Triton X-100 and purified in house
Experiment: Inhibitory activity against binding of GPIIb/IIIa and fibrinogen
Conditions: Table 2, read-out: GPIIb/IIIa Fibrinogen Binding Inhibitory Activity; for inhibition at 10 µM: 10^-5 M; for inhibition at 1 µM: 10^-6 M
Experimental: Test Example 1: Inhibitory activity against binding of GPIIb/IIIa and fibrinogen
(1) Cultivation of human erythroleukemia-derived cell line (hereinafter referred to as HEL cells)
HEL cells (HEl92.1.7; ATCC No. TIB180) were purchased from ATCC (Rockville, Md., U.S.A.). The medium was RPMI medium (GIBCO Laboratories, Grand Island, N..Y, U.S.A.) containing 40 mM N-2-hydroxyethylpiperazine-N'-2-ethanesulfonic acid (hereinafter referred to as HEPES) (pH 7.0), 0.2% NaHCO3, 100 μg/ml kanamycin and 10% FCS. The cells were cultured in the presence of 5% CO2 at 37° C., with the medium replaced with a fresh medium to obtain a 4- to 5-fold dilution at intervals of 3 to 4 days.
(2) Purification of GPIIb/IIIa from HEL cells
GPIIb/IIIa was purified by a modification of the method of L. A. Fitzgerald et al. [J. Biol. Chem., 262, 3936 (1987)] as follows: All purification was conducted at room temperature, unless otherwise stated. At 7 days of cultivation, cells were collected from the HEL cell culture broth (cell suspension) by centrifugation (1,000 ×g, 10 minutes, 4° C.). After washing with 20 mM Tris-HCl (pH 7.5) containing 1 mM EDTA and 150 mM NaCl, the cells were suspended in a solubilizing buffer (20 mM Tris-HCl, 150 mM NaCl, 1% Triton X-100, 1 mM MgCl2, 1 mM CaCl2, 0.1 mM (p-amidinophenyl)methanesulfonyl fluoride (hereinafter referred to as APMSF), 10 nM leupeptin, 0.02% NaN3, pH 7.4), followed by gentle stirring at 4° C. for 30 minutes, to solubilize the GPIIb/IIIa. The suspension was centrifuged (100,000 ×g, 1 hour) at 4° C., and the cell debris removed, to yield a cell extract. The cell extract was passed through a Heparin-Sepharose CL-6B column (Pharmacia LKB) and a DEAE-Toyopearl 650M column (Tosoh), both previously equilibrated with a column buffer (20 mM Tris-HCl, 150 mM NaCl, 0.1% Triton X-100, 1 mM MgCl2, 1 mM CaCl2, 0.1 mM APMSF, 1 nM leupeptin, 0.05% NaN3, pH 7.4). The effluent was applied to a ConA-Sepharose column (Pharmacia LKB), previously equilibrated with the same column buffer as above, to adsorb the GPIIb/IIIa, followed by elution with the same column buffer but containing 0.5M methyl α-D-mannopyranoside. The eluted fraction was concentrated at 4° C. using an ultrafiltration apparatus (Amicon Corporation the fraction's molecular weight of 10,000), after which it was subjected to gel filtration through a Sephacryl S-300 column (Pharmacia LKB), previously equilibrated with the same column buffer, to yield a purified standard sample.
(3) Biotinization of human fibrinogen
Conducted by the method of I. F. Charo [I. F. Charo et al., J. Biol. Chem., 266, 1415 (1991)].
Human fibrinogen (Kabi Vitrum AB) was dissolved in PBS to 5 mg/ml and then dialyzed at 4° C. against 0.1M carbonate buffer (pH 8.2) containing 0.1M NaCl. After dialysis, insoluble substances were removed by centrifugation (100,000 ×g, 30 minutes), and the dialyzate was diluted to 1 mg/ml with the same buffer. To this dilution, sulfo-N-hydroxysuccinimidebiotin (Pierce Chemical Co.) was added to a final concentration of 0.2 mg/ml, followed by gentle mixing at room temperature for 30 minutes, to biotinize the fibrinogen. After completion of the reaction, the mixture was dialyzed against 0.05M Tris-HCl buffer (pH 7.4) containing 0.1M NaCl and 0.05% NaN3.
(4) Determination of inhibitory activity against fibrinogen binding
Conducted by a modification of the method of I. F. Charo [I. F. Charo et al., J. Biol. Chem., 266, 1415 (1991)] as follows: The purified GPIIb/IIIa was diluted to 1 μg/ml with buffer A (20 mM Tris-HCl, 150 mM NaCl, 1 mM CaCl2, 0.02% NaN3, pH 7.4). A 100 μl aliquot of this dilution was dispensed to a 96-well microplate (Maxisorp, produced by Nunc), and the plate kept standing at 4° C., to adsorb the GPIIb/IIIa to the microplate. Next, 150 μl of buffer B (35 mg/ml BSA, 50 mM Tris-HCl, 100 mM NaCl, 2 mM CaCl2, 0.02% NaN3, pH 7.4) was added, followed by 2 hours of blocking at 30° C. […]

T1 sequence (P08514 32-887 limits assumed): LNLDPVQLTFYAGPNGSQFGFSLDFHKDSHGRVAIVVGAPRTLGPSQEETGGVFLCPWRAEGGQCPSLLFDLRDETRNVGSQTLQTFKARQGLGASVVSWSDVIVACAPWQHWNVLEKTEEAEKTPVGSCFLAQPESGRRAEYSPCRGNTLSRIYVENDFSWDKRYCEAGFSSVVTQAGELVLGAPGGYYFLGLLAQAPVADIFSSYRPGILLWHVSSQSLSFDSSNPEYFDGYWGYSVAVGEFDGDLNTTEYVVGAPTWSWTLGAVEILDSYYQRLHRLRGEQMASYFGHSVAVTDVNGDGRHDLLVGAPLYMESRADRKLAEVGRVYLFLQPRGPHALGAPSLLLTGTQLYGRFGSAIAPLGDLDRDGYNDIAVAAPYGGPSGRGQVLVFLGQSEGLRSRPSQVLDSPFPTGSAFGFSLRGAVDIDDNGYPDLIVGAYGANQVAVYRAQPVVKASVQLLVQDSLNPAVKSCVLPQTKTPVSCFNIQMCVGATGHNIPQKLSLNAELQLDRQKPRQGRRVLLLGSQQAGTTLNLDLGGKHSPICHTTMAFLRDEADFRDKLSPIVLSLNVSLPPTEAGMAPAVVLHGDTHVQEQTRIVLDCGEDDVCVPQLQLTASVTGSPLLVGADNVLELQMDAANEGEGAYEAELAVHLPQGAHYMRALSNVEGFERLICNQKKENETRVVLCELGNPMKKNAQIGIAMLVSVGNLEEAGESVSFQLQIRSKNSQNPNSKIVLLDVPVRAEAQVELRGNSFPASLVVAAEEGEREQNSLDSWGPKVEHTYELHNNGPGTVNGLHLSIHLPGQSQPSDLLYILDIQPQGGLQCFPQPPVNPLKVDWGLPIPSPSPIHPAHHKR
T1 sequence (P08514 891-1039 limits assumed): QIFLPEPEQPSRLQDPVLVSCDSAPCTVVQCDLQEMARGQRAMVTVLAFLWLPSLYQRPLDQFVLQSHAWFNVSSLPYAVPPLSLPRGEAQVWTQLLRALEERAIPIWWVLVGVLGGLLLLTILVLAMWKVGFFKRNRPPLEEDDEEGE
T1 sequence (P05106 27-788): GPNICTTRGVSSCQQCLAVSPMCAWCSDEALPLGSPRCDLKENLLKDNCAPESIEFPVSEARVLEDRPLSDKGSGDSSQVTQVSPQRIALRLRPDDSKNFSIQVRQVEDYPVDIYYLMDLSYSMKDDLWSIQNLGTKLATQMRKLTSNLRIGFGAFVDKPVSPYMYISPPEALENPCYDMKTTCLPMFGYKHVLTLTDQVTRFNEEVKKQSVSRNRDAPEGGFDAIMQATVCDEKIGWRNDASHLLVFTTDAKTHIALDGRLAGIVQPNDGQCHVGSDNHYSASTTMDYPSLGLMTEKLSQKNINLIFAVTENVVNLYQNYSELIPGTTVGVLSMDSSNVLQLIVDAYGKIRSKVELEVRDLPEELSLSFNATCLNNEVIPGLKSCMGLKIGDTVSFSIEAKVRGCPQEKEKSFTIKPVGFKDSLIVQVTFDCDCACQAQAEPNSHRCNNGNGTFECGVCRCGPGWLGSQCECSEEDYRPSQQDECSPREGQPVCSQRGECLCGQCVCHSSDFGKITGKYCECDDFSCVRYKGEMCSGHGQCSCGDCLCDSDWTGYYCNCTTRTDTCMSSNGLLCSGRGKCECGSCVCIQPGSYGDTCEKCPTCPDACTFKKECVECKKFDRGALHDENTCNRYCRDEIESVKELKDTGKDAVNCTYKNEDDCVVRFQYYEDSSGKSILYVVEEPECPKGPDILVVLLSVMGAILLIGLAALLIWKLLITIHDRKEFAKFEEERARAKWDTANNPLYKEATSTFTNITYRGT

inhibition at 10 µM | inhibition at 1 µM | Compound
50.6% | 34.7% | O=C(O)c1cn(C2CC2)c2c(F)c(N3CCn4ccnc4C3)c(F)c(F)c2c1=O [Compound 40]
58.8% | 17.9% | NC(=O)CCCNc1c(F)cc2c(=O)c(C(=O)O)cn(C3CC3)c2c1F [Compound 41]
61.6% | 33.4% | Nc1c(F)c(N2CCN3CCC[C@@H]3C2)c(F)c2c1c(=O)c(C(=O)O)cn2C1CC1 [Compound 44]
59.9% | 31.4% | COn1cc(C(=O)O)c(=O)c2cc(F)c(N3CCn4ccnc4C3)c(F)c21 [Compound 45]
 | 57.7% | NCc1nc2c(s1)CCN(c1c(F)cc3c(=O)c(C(=O)O)cn(C4CC4)c3c1F)C2 [Compound 48]
 | 30.5% | NC(=O)c1ccc(-n2cc(C(=O)O)c(=O)c3cc(F)c(N4CCNCC4)c(F)c32)cc1 [Compound 49]
50.1% | 21% | O=C(O)c1cn(-c2ccncc2)c2c(F)c(N3CCNCC3)c(F)cc2c1=O [Compound 54]
100% | 100% | O=C(O)c1cn(Cc2nccs2)c2cc(N3CCC(C4CCNCC4)CC3)ccc2c1=O [Compound 58, 7-[4-(4-Piperidinyl)piperidin-1-yl]-1-(2-thiazolylmethyl)-1,4-dihydro-4-oxoquinoline-3-carboxylic acid]
100% | 100% | O=C(O)c1cn(Cc2nccs2)c2c(F)c(N3CCNCC3)c(F)cc2c1=O [Compound 59, 6,8-Difluoro-7-(1-piperazinyl)-1-(2-thiazolylmethyl)-1,4-dihydro-4-oxoquinoline-3-carboxylic acid hydrochloride]
100% | 100% | CN(C)CCOC1CCN(c2c(F)cc3c(=O)c(C(=O)O)cn(Cc4nccs4)c3c2F)C1 (centres unmarked) [Compound 62]
100% | 100% | CN1CCN(C(=O)OC2CCN(c3c(F)cc4c(=O)c(C(=O)O)cn(Cc5nccs5)c4c3F)C2)CC1 (centres unmarked) [Compound 63]
100% | 86.7% | O=C(O)c1cn(Cc2nccs2)c2c(F)c(N3CCN(c4cccnc4)CC3)c(F)cc2c1=O [Compound 66]
100% | 92.2% | CC(=O)NCCN1CCN(c2c(F)cc3c(=O)c(C(=O)O)cn(Cc4nccs4)c3c2F)CC1 [Compound 69]
100% | 95.9% | NCCN1CCN(c2c(F)cc3c(=O)c(C(=O)O)cn(Cc4nccs4)c3c2F)CC1 [Compound 70]

The next lines start with the compound.

Compound | inhibition at 10 µM | inhibition at 1 µM
CN1CCN(C(=O)CCCNc2c(F)cc3c(=O)c(C(=O)O)cn(C4CC4)c3c2F)CC1 [Compound 42] | 67.3% | 38.6%
C=CCN(CC=C)c1c(F)cc2c(=O)c(C(=O)O)cn(C3CC3)c2c1F [Compound 43] | 52.1% | 20.2%
O=C(O)c1cn(C2CCc3ccccc32)c2c(F)c(N3CCNCC3)c(F)cc2c1=O (centres unmarked) [Compound 46, 6,8-Difluoro-1-(indan-1-yl)-7-(piperazin-1-yl) 1,4-dihydro-4-oxoquinoline-3-carboxylic acid] |  | 41.6%
NC(=O)OC1CCN(c2c(F)cc3c(=O)c(C(=O)O)cn(-c4ccc(F)cc4F)c3c2F)C1 (centres unmarked) [Compound 47] |  | 43.1%
CN1CCN(c2c(F)cc3c(=O)c(C(=O)O)cn(Cc4nccs4)c3c2F)CC1 [Compound 50, 6,8-Difluoro-7-(4-methylpiperazin-1-yl)-1-(thiazol-2-yl)methyl-1,4-dihydro-4-oxoquinoline-3-carboxylic acid hydrochloride] | 99.8% | 92.3%
O=C(O)c1cn(Cc2nccs2)c2c(F)c(N3CCn4ccnc4C3)c(F)cc2c1=O [Compound 51] | 97.5% | 88.1%
O=C(O)c1cn2c3c(c(N4CCn5ccnc5C4)c(F)cc3c1=O)OCC2 [Compound 52, 9-Fluoro-10-(5,6,7,8-tetrahydroimidazo[1,2-a]pyrazin-7-yl)-2,3-dihydro-7-oxo-7H-pyrido[1,2,3-a][1,4]benzoxazine-6-carboxylic acid] | 90.8% | 55%
CN1CCN(c2c(F)cc3c(=O)c(C(=O)O)cn4c3c2N(C)CC4)CC1 [Compound 53, 9-Fluoro-1-methyl-10-(4-methylpiperazin-1-yl) 7-oxo-2,3-dihydro-1H,7H-pyrido[1,2,3-de]quinoxaline-6-carboxylic acid] | 89.5% | 47.6%
O=C(O)c1cn(Cc2ccccc2)c2c(F)c(N3CCNCC3)c(F)cc2c1=O [Compound 55, 1-Benzyl-6,8-difluoro-7-(1-piperazinyl)-1,4-dihydro-4-oxoquinoline-3-carboxylic acid] | 100% | 93.8%
O=C(O)c1cn(CCc2ccccc2)c2c(F)c(N3CCNCC3)c(F)cc2c1=O [Compound 56] | 88.2% | 72.2%
O=C(O)c1cn(Cc2nccs2)c2cc(N3CCN(c4ccncc4)CC3)ccc2c1=O [Compound 57, 7-[4-(4-Pyridyl)piperazine-1-yl]-1-(2-thiazolylmethyl)-1,4-dihydro-4-oxoquinoline-3-carboxylic acid] | 100% | 100%
CN(C)CCCNc1c(F)cc2c(=O)c(C(=O)O)cn(Cc3nccs3)c2c1F [Compound 60] | 100% | 95%
O=C(O)c1cn(Cc2nccs2)c2c(F)c(N3CCCNCC3)c(F)cc2c1=O [Compound 61] | 100% | 97.1%
O=C(O)c1cn(Cc2nccs2)c2c(F)c(N3CCN(c4ccncc4)CC3)c(F)cc2c1=O [Compound 64] | 100% | 100%
O=C(O)c1cn(Cc2nccs2)c2c(F)c(N3CCN(c4ccccn4)CC3)c(F)cc2c1=O [Compound 65] | 100% | 81.2%
O=C(O)c1cn(Cc2nccs2)c2c(F)c(N3CCN(c4cc(N5CCCC5)nc(N5CCCC5)n4)CC3)c(F)cc2c1=O [Compound 67] | 58.6% | 76.4%
O=C(O)c1cn(Cc2nccs2)c2c(F)c(N3CCC(C4CCNCC4)CC3)c(F)cc2c1=O [Compound 68] | 100% | 100%
O=C(O)c1cn(Cc2nccs2)c2c(F)c(N3CCN(CCO)CC3)c(F)cc2c1=O [Compound 71] | 100% | 100%
O=C(O)c1cn(Cc2cscn2)c2c(F)c(N3CCNCC3)c(F)cc2c1=O [Compound 72, 6,8-Difluoro-7-(1-piperazinyl)-1-(4-thiazolylmethyl)-1,4-dihydro-4-oxoquinoline-3-carboxylic acid hydrochloride] | 100% | 88.6%
